# Reference: ChEMBL document CHEMBL1201862, “PubChem BioAssay data set” (2004)
# Active and inactive are the calls of the source.
# What was measured:
# [1] = growth suppression of PTEN-null colon cells, dose response, cell-based, HCT116 PTEN knockout (AID 1047); format: functional;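 note: HCT116 colon tumor cells with PTEN knocked out; cells exposed to compound for 60 hours before readout; potency for loss of cell viability measured by luminescence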
# [2] = growth suppression of beta-catenin-knockout colon cells, dose response, cell-based, HCT116, human colon tumor (AID 1045); format: functional;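 note: HCT116 colon tumor cells with beta catenin knocked out; cells exposed to compound for 60 hours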
# Ephrin type-A receptor 4 = Ephrin type-A receptor 4 (Mus musculus, UniProt Q03137); assay: inhibitors of EphA4 binding to KYL peptide, primary screen, biochemical, colorimetric, mouse EphA4 (AID 689); format: functional
# [3] = system: Streptococcus sp. 'group A'; assay: growth inhibition of control SK(-) GAS strain, dose response, counter-screen for streptokinase expression inhibitor project, luminescence, kanamycin, BacTiterGlo, confirmation (AID 1900); format: functional, organism-based
# [4] = M. tuberculosis growth inhibition, HTS (AID 449762); format: functional
# Streptococcus = assay: Group A Streptococcus viability loss, dose response, counter-screen for streptokinase expression inhibitor project, luminescence, BacTiterGlo (AID 1915); format: functional, organism-based;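 note: potency for reduction of bacterial viability or growth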
# [5] = inhibitors of intracellular T. cruzi replication, confirmation, NIH3T3 host cells, beta-gal luminescence (AID 2044); format: functional, cell-based;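 note: intracellular parasites grown in NIH/3T3 mouse fibroblasts as host cells; luminescent beta-galactosidase reporter signal from transgenic T. cruzi replicating inside host cells; inhibitors lower the luminescence signal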
# [6] = cytotoxicity toward NIH3T3 fibroblasts, dose response, counter-screen, cell-based, ATP luminescence, mouse fibroblasts (AID 2010); format: functional;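 note: cells exposed to compound for about 90 hours before reading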
# Kallikrein-7 = Kallikrein-7 (Homo sapiens, UniProt P49862); assay: Fluorescence Intensity-based biochemical primary high throughput dose response assay to identify activators of kallikrein-7 (K7) zymogen.
# [7] = molecular target: T1, RNA-binding protein pos-1 (Caenorhabditis elegans, UniProt G5EF15); assay: inhibitors of POS-1/mex-3 RNA binding, dose response, biochemical, fluorescence polarization (AID 1964);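 note: purified POS-1 fused to maltose binding protein made in E. coli; potency of compounds blocking POS-1 binding to fluorescent RNA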
# T1 sequence (G5EF15 whole entry): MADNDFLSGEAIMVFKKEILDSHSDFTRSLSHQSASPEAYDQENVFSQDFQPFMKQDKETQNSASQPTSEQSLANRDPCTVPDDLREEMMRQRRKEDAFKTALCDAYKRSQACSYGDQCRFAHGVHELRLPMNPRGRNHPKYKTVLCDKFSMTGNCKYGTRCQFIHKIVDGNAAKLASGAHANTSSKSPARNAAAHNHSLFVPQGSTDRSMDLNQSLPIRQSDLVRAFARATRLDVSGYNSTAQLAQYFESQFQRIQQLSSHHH
# [8] = molecular target: T2, Zinc finger protein mex-5 (Caenorhabditis elegans, UniProt Q9XUB2); assay: MEX-5/TCR-2 RNA interaction inhibitors, dose response, biochemical, C. elegans, fluorescence polarization (AID 1960)
# T2 sequence (Q9XUB2 whole entry): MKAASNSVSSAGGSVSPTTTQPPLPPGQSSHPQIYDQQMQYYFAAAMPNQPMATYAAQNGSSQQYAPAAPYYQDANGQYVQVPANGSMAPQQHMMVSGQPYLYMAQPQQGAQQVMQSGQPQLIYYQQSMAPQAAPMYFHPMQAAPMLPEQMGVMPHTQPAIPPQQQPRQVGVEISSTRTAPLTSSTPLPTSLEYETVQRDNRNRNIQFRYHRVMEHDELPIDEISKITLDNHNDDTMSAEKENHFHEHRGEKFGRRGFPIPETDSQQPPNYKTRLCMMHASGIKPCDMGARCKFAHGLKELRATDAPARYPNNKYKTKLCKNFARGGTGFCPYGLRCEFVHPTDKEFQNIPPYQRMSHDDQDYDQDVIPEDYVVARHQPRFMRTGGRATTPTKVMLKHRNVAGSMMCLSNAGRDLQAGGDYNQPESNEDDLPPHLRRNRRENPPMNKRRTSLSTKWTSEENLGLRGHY
# Caspase-6 = Caspase-6 (Homo sapiens, UniProt P55212); assay: human caspase-6 inhibitors, dose response, biochemical, VEID-R110 fluorescence, cherry-pick (AID 720632)
# Vero [9] = assay: host cell cytotoxicity of antiviral hits, dose response, cytotoxicity control for West Nile virus antiviral project, secondary assay (AID 1650); format: functional; settings: Chlorocebus sabaeus
# Nonstructural protein 1 = Nonstructural protein 1 (Influenza A virus, UniProt Q194T2); format: functional, Influenza A virus (A/California/07/2009(H1N1))
# Vero [10] = assay: cells; format: functional; settings: Chlorocebus sabaeus
# [11] = molecular target: T3, Polyadenylate-binding protein 1 (Homo sapiens, UniProt P11940); assay: PABP1 MLLE–PAM2 interaction inhibitors, dose response, miRNA deadenylation inhibitor project, biochemical, fluorescence polarization, Cy5-PAM2 peptide, secondary (AID 602260); format: functional; settings: read-out: IC50_Mean
# [12] = molecular target: T3, Polyadenylate-binding protein 1; assay: PABP1 MLLE–PAM2 binding inhibitor potency, dose response, biochemical, fluorescence polarization, FITC-PAM2 peptide (AID 602259); format: functional; settings: read-out: IC50_Mean
# Prothrombin = Prothrombin (Homo sapiens, UniProt P00734); assay: Thrombin 1536 HTS Dose Response Confirmation. [Related pubchem assays: 1046 (Thrombin 1536 HTS; hits were confirmed in this assay)]; format: functional
# T3 sequence (P11940 whole entry): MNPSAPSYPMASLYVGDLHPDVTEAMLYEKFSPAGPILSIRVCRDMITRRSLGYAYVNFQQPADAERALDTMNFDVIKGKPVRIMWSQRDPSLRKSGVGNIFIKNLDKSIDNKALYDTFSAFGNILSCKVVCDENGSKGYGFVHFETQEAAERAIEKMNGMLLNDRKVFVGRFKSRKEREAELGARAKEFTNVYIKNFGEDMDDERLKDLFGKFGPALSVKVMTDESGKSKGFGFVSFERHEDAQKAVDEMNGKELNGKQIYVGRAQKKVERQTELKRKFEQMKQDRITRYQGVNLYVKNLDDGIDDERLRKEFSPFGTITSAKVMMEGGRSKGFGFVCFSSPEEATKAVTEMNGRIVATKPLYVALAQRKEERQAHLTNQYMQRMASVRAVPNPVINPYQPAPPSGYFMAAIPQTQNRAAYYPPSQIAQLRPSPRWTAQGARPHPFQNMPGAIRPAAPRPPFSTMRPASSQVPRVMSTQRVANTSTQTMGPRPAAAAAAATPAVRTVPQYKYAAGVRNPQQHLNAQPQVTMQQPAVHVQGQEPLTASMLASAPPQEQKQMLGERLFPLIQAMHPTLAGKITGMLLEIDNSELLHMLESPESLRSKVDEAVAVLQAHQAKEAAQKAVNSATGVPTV
# Sequence of Caspase-6 (P55212 24-179 limits assumed): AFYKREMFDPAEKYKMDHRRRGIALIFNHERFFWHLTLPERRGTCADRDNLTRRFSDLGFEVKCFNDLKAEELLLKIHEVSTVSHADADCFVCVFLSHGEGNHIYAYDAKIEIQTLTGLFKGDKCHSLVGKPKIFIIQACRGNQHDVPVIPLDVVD
# Sequence of Caspase-6 (P55212 194-293 limits assumed): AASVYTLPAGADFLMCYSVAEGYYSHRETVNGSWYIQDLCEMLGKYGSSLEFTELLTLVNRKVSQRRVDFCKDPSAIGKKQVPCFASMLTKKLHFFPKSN
# Sequence of Nonstructural protein 1 (Q194T2 whole entry): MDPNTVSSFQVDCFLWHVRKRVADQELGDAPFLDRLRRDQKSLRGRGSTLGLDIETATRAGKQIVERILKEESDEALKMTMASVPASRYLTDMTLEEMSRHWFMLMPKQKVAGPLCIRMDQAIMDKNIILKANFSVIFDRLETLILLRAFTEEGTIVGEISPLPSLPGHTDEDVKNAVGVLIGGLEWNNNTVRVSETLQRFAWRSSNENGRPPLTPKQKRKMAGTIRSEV
# Sequence of Ephrin type-A receptor 4 (Q03137 whole entry): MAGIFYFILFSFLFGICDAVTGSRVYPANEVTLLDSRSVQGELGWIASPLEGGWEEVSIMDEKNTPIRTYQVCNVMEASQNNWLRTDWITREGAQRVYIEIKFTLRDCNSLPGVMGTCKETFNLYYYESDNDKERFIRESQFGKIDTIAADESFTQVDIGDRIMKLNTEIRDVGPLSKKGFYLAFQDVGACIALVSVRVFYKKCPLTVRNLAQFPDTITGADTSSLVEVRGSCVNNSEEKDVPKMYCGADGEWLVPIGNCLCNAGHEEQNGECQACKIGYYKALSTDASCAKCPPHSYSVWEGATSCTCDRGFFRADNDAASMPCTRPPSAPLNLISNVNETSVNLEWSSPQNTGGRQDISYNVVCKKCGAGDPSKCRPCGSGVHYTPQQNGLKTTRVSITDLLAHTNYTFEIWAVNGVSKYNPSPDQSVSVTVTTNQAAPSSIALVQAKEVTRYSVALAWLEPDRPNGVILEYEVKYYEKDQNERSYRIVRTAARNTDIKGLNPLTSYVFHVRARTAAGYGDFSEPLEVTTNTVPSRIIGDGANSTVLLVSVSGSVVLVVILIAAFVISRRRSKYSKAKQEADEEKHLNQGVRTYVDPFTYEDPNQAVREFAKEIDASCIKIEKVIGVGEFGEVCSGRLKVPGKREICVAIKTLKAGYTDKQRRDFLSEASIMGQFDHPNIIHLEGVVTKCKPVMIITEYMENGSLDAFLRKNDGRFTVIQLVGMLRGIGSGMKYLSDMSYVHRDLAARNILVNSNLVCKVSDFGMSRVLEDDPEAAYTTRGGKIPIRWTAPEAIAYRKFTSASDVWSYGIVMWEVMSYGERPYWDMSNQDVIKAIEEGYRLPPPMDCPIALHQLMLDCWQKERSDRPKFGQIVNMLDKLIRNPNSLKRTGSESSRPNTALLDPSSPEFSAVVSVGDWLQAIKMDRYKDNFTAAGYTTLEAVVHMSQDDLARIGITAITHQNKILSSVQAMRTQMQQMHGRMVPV
# Sequence of Kallikrein-7 (P49862 whole entry, the tested form may be a part): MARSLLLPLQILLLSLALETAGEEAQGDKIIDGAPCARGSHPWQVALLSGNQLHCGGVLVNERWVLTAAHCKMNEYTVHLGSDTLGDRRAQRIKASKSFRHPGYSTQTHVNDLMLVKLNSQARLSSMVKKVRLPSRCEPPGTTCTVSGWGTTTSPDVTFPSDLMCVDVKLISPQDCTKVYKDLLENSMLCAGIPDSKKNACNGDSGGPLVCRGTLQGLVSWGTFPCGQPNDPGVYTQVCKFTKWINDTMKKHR
smiles,measurement,setting,value
O=C(Nc1cccc2c1CCCC2)c1cc([N+](=O)[O-])ccc1Cl,EC50,[1],7.64 µM (active)
same,EC50,[2],6.84 µM (active)
same,IC50,Ephrin type-A receptor 4,> 100 µM (not active)
Cc1ccc(S(=O)(=O)CN=C(S)c2ccc3ccccc3c2)cc1,EC50,[3],3.01 µM (active)
same,IC50,[4],> 100 µM (active)
same,EC50,Streptococcus,> 150 µM (not active)
O=C(c1cc([N+](=O)[O-])cc([N+](=O)[O-])c1)N1CCCc2ccccc21,EC50,[5],< 0.1 µM (active)
same,EC50,[6],> 60 µM (not active)
same,EC50,cells,0.203 µM (active)
CC(=O)Nc1cc2c3c(cccc3c1)-c1ccccc1-2,EC50,Kallikrein-7,8.84 µM (active)
CCOc1cc(N2CCOCC2)c(OCC)cc1NC(C)C(=O)N1CCN(CC)CC1 (stereo not drawn),EC50,[7],82.7 µM (active)
same,EC50,[8],> 300 µM (inconclusive)
same,AC50,Caspase-6,46.7 µM (active)
CCC(C)C(=O)N1c2ccccc2C(=C2SC(C(=O)OC)=C(C(=O)OC)S2)C(=S)C1(C)C (stereo not drawn),CC50,Vero [9],> 100 µM (active)
same,IC50,Nonstructural protein 1,17.7 µM (active)
same,CC50,Vero [10],21.6 µM (active)
same,IC50,[11],> 66 µM (inactive)
same,IC50,[12],> 66 µM (inactive)
CCC(=O)n1nc(-c2ccc(Cl)cc2)nc1NCc1ccccc1,IC50,Prothrombin,1.75 µM (active)
CN(CC1CCCN(CCc2cccc(C(F)(F)F)c2)C1)C(=O)c1ccco1 (stereo not drawn),EC50,[5],< 0.1 µM (active)
same,EC50,[6],> 60 µM (not active)
same,EC50,cells,0.587 µM (active)
CSc1nc(-c2ccccc2)nn1C(=O)c1ccc(C)cc1,IC50,Prothrombin,0.028 µM (active)
